Consider 64 compounds from a melting point compilation (Tetko et al.; mined from patent text by program, amines drawn as free bases though some values may be those of a salt).

`Cc1ccc(C(=O)NC(=S)NCc2ccccc2C(N)=O)cc1` had a melting point of 145 to 147 °C.
To `CC1(C)Oc2ccc(S(=O)(=O)c3ccccc3)cc2C2OC21` (centres undefined) belongs 103 to 105 °C; to `CC(=O)OCC(=O)Nc1cc(-c2ccncc2)c[nH]c1=O`, 267 to 290 °C; to `CC1CC(=O)NN=C1c1ccc(N2CCC(C(=O)O)CC2)c([N+](=O)[O-])c1` (centres undefined), 214 °C.
As for `COC(=O)C(C#N)=C(N)c1c(-c2ccccc2)noc1N`, the figure is 256 °C; as for `CNc1nc(Cl)nc2c1ncn2C1SC(CO)C(O)C1O` (centres undefined), 220 to 222 °C; as for `O=C1CCOc2cc(F)ccc21`, 61 to 62 °C.
Turning to `Cc1nc(-c2ccc(N3CCN(C)CC3)c([N+](=O)[O-])c2)sc1C(=O)O`, the melting point was in the range of 218 to 220 °C.
For the compound `Nc1ccc(C(=O)CCCCl)cc1[N+](=O)[O-]`, the melting point worked out at 150 °C.
As for `Cc1cccc(C(O)COc2ccc(CC3SC(=O)NC3=O)cc2)n1` (centres undefined), the figure is 154 to 155 °C.
As for `CCOC(=O)CCCCSc1nc(-c2ccccc2)c(-c2ccccc2)[nH]1`, the figure is 87 to 89 °C; as for `Cc1cc(-c2ccc(Cl)cc2)cn2c(-c3nc(-c4ccc(S(N)(=O)=O)s4)no3)cnc12`, 271 °C; as for `COc1cc2c3ccc(OC)c(OC)c3n(S(=O)(=O)c3ccc([N+](=O)[O-])cc3)c2cc1OC`, 188 to 189 °C.
As for `CSc1cccc(C2CC(=O)C=C(O)C2)c1` (centres undefined), the figure is 141 °C; as for `NS(=O)(=O)c1cccc(-c2noc(-c3cnn4c(C5CC5)cc(-c5ccc(Cl)cc5)nc34)n2)c1`, 285 °C.
`COC(=O)C(=O)Nc1ccccc1C(C)(C)C` showed a melting point of 61.7 to 63.6 °C.
To `O=c1[nH]c(=O)n(CCCCCN2CCC(OC(c3ccccc3)c3ccccc3)CC2)c2ccccc12` belongs 173 to 174 °C.
To `CCCc1c(OCCCC(=O)NCCCCCCc2cccnc2)ccc(C(C)=O)c1O` belongs 69 to 71 °C; to `COC(=O)c1c(OCc2ccccc2)ccc2c1CCCC2`, 59 to 61 °C.
To `CC(C)(O)COc1c(-c2ccc(S(C)(=O)=O)cc2)cnn(-c2ccc(F)c(Cl)c2)c1=O` belongs 122 to 124 °C.
Compound `O=CC(=Cc1cccc(OCc2ccc(Cl)cc2)c1)C(C=O)=Cc1cccc(OCc2ccc(Cl)cc2)c1` returned a melting point of 193 to 194 °C.
As for `C=CCOc1cc2oc(=O)ccc2cc1C`, the melting point is 124 to 125 °C.
To `CCCC(=O)NCCc1c[nH]c2ccc(OCc3ccccc3)cc12` belongs 112 to 114 °C; to `O=C(Nc1cc(-n2cccn2)nc(-c2ccco2)n1)OCc1cccnc1`, 254 to 256 °C; to `CCc1cc(C(=O)c2ccccc2Cl)c(-n2c(Cl)nnc2CNC(=O)c2cc3ccccc3[nH]2)s1`, 254 to 256 °C.
Compound `CC(C)(C)c1nc2cc(N3CCCC3)c(NC(N)=S)cc2s1` yielded a melting point of 221 °C.
To `COc1c(C)c2c(c(O)c1C/C=C(\C)C(O)C(C)(C)C(=O)O)C(=O)OC2` (centres undefined) belongs 180 to 181 °C; to `COC(=O)c1cc2c3cccc(Cl)c3n(C)c2s1`, 166 to 168 °C; to `Cc1c[nH]c(=O)c2ccccc12`, 175 to 176 °C.
As for `Nc1nc2ccccc2c2c1ncn2CCOCc1ccccn1`, the figure is 196 to 198 °C.
As for `CC(=O)Nc1ccc(C#N)cc1F`, the figure is 170 to 172 °C; as for `COC(=O)c1ccc(CN2CCC(N)CC2)nc1`, 173 to 175 °C; as for `Cc1nccnc1C(=O)Nc1ccccc1-c1ccc(OC(F)(F)F)cc1`, 120 to 121 °C.
In turn, `Cc1ccc(S(=O)(=O)Oc2ccc(S(=O)(=O)C3=C(C(C)C)OCC3)cc2)cc1` had a melting point of 103 °C.
To `CCOC(=O)C1=C(C)NC(=O)N(C(N)=O)C1c1cccc([N+](=O)[O-])c1` (centres undefined) belongs 213 to 215 °C; to `SCC1=NC2CCCCC2N1` (centres undefined), 125 to 129 °C; to `CNN=C1CCC(C)n2c1ncc(C(=O)O)c2=O` (centres undefined), 219 to 220 °C.
To `CCOC(=O)c1[nH]c2ccc(Cl)cc2c1N` belongs 126 to 127 °C; to `CCOC(=O)N1CC2CC1CN2Cc1ccccc1` (centres undefined), 124 to 128 °C.
To `CCc1nc2c(cnn2CC)c(NC2CCOCC2)c1CNC(=O)c1cc(C)cc(C(=O)NCc2ccc(Cl)c(Br)c2)c1` belongs 212 to 214 °C; to `CCOC(=O)C1=CNc2ccc(C(F)(F)F)cc2CC1c1ccccc1Cl` (centres undefined), 190 to 192 °C.
`CC(CN(C)C)N1c2ccccc2Sc2ccc(C(=O)NCc3cccs3)cc21` (racemic) gave a melting point of 135 °C.
As for `Nc1ccc(OCc2ccccc2)cc1N`, the figure is 184 °C; as for `ClCc1nc(Cl)c2ccccc2n1`, 99 to 101 °C.
`CCc1nc2nc3cc(Cl)ccc3nc2n1C(=O)C=C(C)C` came in with a melting point of 170 to 172 °C.
To `COC(=O)C1(N)CCN(c2ncc3ncnc(Nc4ccc(F)c(Cl)c4)c3n2)CC1` belongs 182 to 184 °C; to `CCCCOC(=O)NCCc1ccc(OCC(O)CNC(C)C)nc1` (centres undefined), 93 to 95 °C.
To `CC(C)OC(=O)Cn1c(=O)n(C)c(=O)n(-c2cc(N3C(=O)C4CS(=O)CCN4C3=O)c(F)cc2Cl)c1=O` (centres undefined) belongs 175 to 180 °C; to `NC(=O)c1[nH]c2ccccc2c1-c1ccc(NC(=O)Nc2ccccc2)cc1`, 232 to 234 °C; to `COc1c(OS(C)(=O)=O)ccc2[nH]ncc12`, 130 to 131 °C.
To `c1ccc(CCOCCOc2ccc(OCc3ccccc3)cc2)cc1` belongs 46 to 49 °C.
`CC(c1cc2ccccc2s1)N(OC(=O)OC(C)(C)C)C(N)=O` (centres undefined) displayed a melting point of 120 to 122 °C.
To `O=C(N1CCN(c2ccccc2)CC1)N1CC(Oc2ccc(F)cc2)C1` belongs 124 to 125 °C.
Turning to `O=C(O)CCC(Cc1ccccc1Cl)(C(=O)C=Cc1cccc(Cl)c1)c1ccccc1` (centres undefined), the melting point was in the range of 170 to 172 °C.
As for `COCCOc1ccc(CCCOC(=O)NS(=O)(=O)c2ccc(Cl)cc2)c(Oc2ncc(C(F)(F)F)cc2Cl)c1`, the figure is 147 to 150 °C; as for `NC(=O)CNC(=O)c1cc(-c2ccc(F)c3cc(Cc4cc(F)cc(Cl)c4)sc23)ccc1F`, 148 to 150 °C.
Compound `O=S1(=O)NCN(C2CCCCCC2)c2cc(Cl)c(Cl)cc21` displayed a melting point of 191 to 192 °C.
To `Cc1c(-c2ccccc2Cl)n(-c2ccccc2Cl)c(-c2ccccc2Cl)cc1=O` belongs 205 to 207 °C.
`CCCc1nc(-n2cccc2C(=O)C(F)(F)F)c(C(=O)OC)[nH]1` gave a melting point of 158 to 159 °C.
`CNS(=O)(=O)NCCNC(=O)[C@@H](C[C@H](O)[C@H](C)NC(=O)OC(C)(C)C)C(C)C` gave a melting point of 75 to 95 °C.
As for `CN(C)C=C(C#N)C#N`, the figure is 81 to 82 °C; as for `O=C(c1ccccc1)c1cccc2c1CCCC2C(=O)O` (centres undefined), 164 to 165 °C.
To `NC(=O)Cc1c(-c2ccccc2)nn2cccnc12` belongs 217 to 219 °C; to `COc1c(C)cc2c(c1C)C[C@@H]1c3cc(C(C)C)ccc3N[C@H]21` (relative stereo), 106 °C.
